Measured values published in article PMC10699038, “Identifying molecular tags selectively retained on the surface of brain endothelial cells to generate artificial targets for therapy delivery” (Fluids and Barriers of the CNS, 2023).

Test system: b.End3 cells
Test: Peptide-mediated protein (avidin-FITC/albumin-FITC) delivery to b.End3 cells
Type: cell-based, mouse
Details: N-terminal biotin peptide, increasing concentrations, 1 h, 4 °C, avidin-FITC 50 µg/mL, 30 min, fluorescence, 3 independent experiments, triplicate
Protocol: Confluent endothelial monolayers were treated with increasing peptide concentrations in HBSS (1 h at 4 °C, unless otherwise stated). After removing unbound peptide, cells were either incubated in appropriate cell culture medium (37 °C) for varying time-points, or directly treated with neutravidin-FITC or albumin-FITC (0.83 mM, in HBSS, 30 min at 4 °C). After removing unbound protein with thorough HBSS washes, fluorescence (490/525 em/ex) was quantified with a Spark multimode microplate reader (Tecan) or imaged through confocal microscopy (Additional file 1: Diagram S1a–c).

HAIYPRH [Tf peptide]
Avidin delivery to b.End3 cells: lower avidin delivery than CFAG
